Measured values: publication PMC8623851, “The Structural Determinants for α1-Adrenergic/Serotonin Receptors Activity among Phenylpiperazine-Hydantoin Derivatives” (Molecules, 2021)
Read-outs that look alike come from different tables or passages of the source.

Assays:
5-HT2AR = target: 5-HT2AR; design: method as in PMID 31330215; settings: cited from earlier work
5-HT1AR = target: 5-HT1AR; design: method as in PMID 31330215; settings: cited from earlier work
α1DR = target: α1DR; design: method as in PMID 31330215; settings: cited from earlier work
behavioral models = tested on: behavioral models; design: method as in PMID 31330215; settings: cited from earlier work
α1AR = target: α1AR; design: method as in PMID 31330215; settings: cited from earlier work
α1BR = target: α1BR; design: method as in PMID 31330215; settings: cited from earlier work
α1-receptor [1] = target: α1-receptor; design: method as in PMID 31383628, PMID 29425815; settings: previously reported arylpiperazine hydantoin derivatives; cited from earlier work
human 5-HT7b receptor [2] = target: T1, human 5-HT7b receptor (Homo sapiens, UniProt P34969); design: expressed in transfected cells; host or cells: HEK-293; method as in PMID 31383628, PMID 29425815; settings: previously reported arylpiperazine hydantoin derivatives; read-out: Ki 5-HT7; cited from earlier work
α1-receptor [3] = experiment: Radioligand binding assay: affinity for α1-receptor ([3H]Prazosin, rat cortex)
Experimental: Tissue (rat cortex) was homogenized in 20 volumes of ice-cold 50 mM Tris-HCl buffer, pH 7.6, using an Ultra Turrax T25B homogenizer (IKA, Staufen, Germany). The homogenate was centrifuged at 20,000× g for 20 min. The resulting supernatant was decanted and pellet was resuspended in the same buffer and centrifuged again in the same conditions. The final pellet was resuspended in an appropriate volume of buffer (10 mg/1 mL).
The concentrations of analyzed compounds ranged from 10^−10 to 10^−5 M.
The incubation was terminated by rapid filtration over glass fiber filters FilterMate B (PerkinElmer, Waltham, MA, USA) using a 96-well FilterMate harvester (PerkinElmer, Waltham, MA, USA). Five rapid washes were performed with ice-cold 50 mM Tris-HCl buffer, pH 7.6.
The FilterMate was dried in a microwave and placed in a plastic bag (PerkinElmer, Waltham, MA, USA) and soaked in 10 mL of a liquid scintillation cocktail Ultima Gold MV (PerkinElmer, Waltham, MA, USA). After even distribution of the scintillation cocktail, the filter bag was sealed.
The radioactivity on the filter was measured by a MicroBeta TriLux 1450 scintillation counter (PerkinElmer, Waltham, MA, USA).
Radioligand binding data were analyzed using iterative curve fitting routines GraphPad Prism 3.0 (GraphPad Software, San Diego, CA, USA) using the built-in three parameter logistic model describing ligand competition binding to radioligand-labeled sites.

α1A-AR = target: T2, α1A-AR (Homo sapiens, UniProt P35348); experiment: Intrinsic (functional) activity for α1A-AR; format: cell-based; settings: antagonist potency; α1A-AR in rat tail artery (table title); 4–7 experimental results; read-out: IC50 ± SEM α1A-AR
T2 sequence (P35348 1-466): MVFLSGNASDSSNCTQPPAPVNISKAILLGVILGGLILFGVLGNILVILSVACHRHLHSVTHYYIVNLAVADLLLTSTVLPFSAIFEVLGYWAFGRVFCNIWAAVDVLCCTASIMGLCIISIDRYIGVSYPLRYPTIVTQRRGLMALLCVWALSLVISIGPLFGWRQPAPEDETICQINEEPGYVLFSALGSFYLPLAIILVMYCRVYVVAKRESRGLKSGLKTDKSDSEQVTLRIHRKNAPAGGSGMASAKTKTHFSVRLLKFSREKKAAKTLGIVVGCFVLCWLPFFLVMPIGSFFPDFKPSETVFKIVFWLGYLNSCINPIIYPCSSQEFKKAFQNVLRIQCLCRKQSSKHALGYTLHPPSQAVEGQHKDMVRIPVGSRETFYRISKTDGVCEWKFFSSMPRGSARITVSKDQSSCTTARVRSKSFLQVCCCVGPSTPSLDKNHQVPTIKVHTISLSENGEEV
Experimental: An intrinsic activity assay was performed according to the manufacturer of the assay kit (Invitrogen, Thermo Fisher Scientific). […] Of the cell suspension, 32 µL per well was added to the Test Compound wells, the Unstimulated Control wells, and Stimulated Control wells and were incubated per 16–24 h. […] Then, both the agonist and the antagonist plate were incubated in a humidified 37 °C/5% CO2 incubator for 5 h. Then, cells were loaded with 8 µL of LiveBLAzer™-FRET B/G Substrate Mixture (CCF4-AM, Thermo Fisher Scientific) and incubated at room temperature for 2 h.

α1B-AR = target: T3, α1B-AR (Homo sapiens, UniProt P35368); experiment: Intrinsic (functional) activity for α1B-AR (Aequoscreen); format: cell-based; settings: antagonist potency; α1B-AR in mouse spleen (table title); 4–7 experimental results; read-out: IC50 ± SEM α1B-AR
T3 construct: expressed in transfected cells; host or cells: recombinant Aequoscreen cell line (frozen, ready to use)
T3 sequence (P35368 1-520): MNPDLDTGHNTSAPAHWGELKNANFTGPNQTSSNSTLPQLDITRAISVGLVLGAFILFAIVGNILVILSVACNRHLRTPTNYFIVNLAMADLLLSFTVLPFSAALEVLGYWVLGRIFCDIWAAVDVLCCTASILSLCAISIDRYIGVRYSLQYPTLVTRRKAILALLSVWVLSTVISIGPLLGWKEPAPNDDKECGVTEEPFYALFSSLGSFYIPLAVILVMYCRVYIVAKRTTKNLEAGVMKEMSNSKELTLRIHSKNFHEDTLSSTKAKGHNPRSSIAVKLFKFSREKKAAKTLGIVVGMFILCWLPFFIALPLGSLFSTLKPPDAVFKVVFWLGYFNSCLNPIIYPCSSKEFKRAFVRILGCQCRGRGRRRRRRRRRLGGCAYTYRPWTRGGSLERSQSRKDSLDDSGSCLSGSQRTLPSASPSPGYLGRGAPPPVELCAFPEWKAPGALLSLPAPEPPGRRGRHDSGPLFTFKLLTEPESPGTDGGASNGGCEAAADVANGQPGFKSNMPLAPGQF
Experimental: The Aequoscreen technology uses the recombinant cell lines with stable expression of the α1B or α1D adrenoreceptor and co-expression of apoaequorin and a GPCR as a system to detect the activation of the receptor, following the addition of an agonist, via the measurement of light emission. For measurement, cells (frozen, ready to use) were thawed and resuspended in 10-mL of assay buffer containing 5 μM coelenterazine h. This cell suspension was put in a 10-mL Falcon tube, fixed onto a rotating wheel and incubated overnight at RT° in the dark. Cells were diluted with Assay Buffer to 5000 cells/20 µL. In the first part, agonistic activity was tested. Potential agonists (standard and tested) 2× (50 μL/well), diluted in Assay Buffer, were prepared in 1/2 white polystryrene area plates, and the cell suspension was dispensed in 50 μL volume on the ligands using the injector. The light emitted was recorded for 20 s. In the second part, the agonistic activity was tested. Cells with tested compounds were incubated for 15 min at room temperature.

human 5-HT1A receptor = target: T4, human 5-HT1A receptor (Homo sapiens, UniProt P08908); experiment: Radioligand binding assay 5-HT1A (HEK-293 membranes, [3H]-8-OH-DPAT)
T4 sequence (P08908 1-422): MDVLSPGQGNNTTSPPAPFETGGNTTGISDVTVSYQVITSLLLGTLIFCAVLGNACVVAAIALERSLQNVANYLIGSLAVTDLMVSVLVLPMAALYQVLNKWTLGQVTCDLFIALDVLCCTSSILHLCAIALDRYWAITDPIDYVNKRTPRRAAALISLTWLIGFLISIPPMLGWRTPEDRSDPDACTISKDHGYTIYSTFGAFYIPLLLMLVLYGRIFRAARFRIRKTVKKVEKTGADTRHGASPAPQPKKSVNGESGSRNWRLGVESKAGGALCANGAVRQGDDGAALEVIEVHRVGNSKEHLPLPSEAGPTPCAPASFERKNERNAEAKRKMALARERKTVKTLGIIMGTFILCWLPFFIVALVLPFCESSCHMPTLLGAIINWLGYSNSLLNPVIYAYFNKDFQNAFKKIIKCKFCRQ

human 5-HT7b receptor [4] = target: T1, human 5-HT7b receptor; experiment: Radioligand binding assay 5-HT7 (HEK-293 membranes, [3H]-5-CT)
human 5-HT6 receptor = human 5-HT6 receptor (Homo sapiens, UniProt P50406); experiment: Radioligand binding assay 5-HT6 (HEK-293 membranes, [3H]-LSD)
Chain of human 5-HT6 receptor (P50406 whole entry): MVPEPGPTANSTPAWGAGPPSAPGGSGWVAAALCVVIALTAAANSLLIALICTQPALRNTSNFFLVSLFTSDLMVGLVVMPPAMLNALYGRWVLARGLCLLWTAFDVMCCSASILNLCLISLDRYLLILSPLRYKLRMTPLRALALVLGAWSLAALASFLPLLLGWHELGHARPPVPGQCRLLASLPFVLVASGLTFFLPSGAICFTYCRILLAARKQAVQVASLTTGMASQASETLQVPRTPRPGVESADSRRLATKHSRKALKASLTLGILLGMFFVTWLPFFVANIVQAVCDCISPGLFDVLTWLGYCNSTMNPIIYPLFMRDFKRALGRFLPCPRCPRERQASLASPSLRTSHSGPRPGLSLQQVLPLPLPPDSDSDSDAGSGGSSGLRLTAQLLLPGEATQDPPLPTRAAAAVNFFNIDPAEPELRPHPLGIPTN

T1 sequence (P34969 1-432): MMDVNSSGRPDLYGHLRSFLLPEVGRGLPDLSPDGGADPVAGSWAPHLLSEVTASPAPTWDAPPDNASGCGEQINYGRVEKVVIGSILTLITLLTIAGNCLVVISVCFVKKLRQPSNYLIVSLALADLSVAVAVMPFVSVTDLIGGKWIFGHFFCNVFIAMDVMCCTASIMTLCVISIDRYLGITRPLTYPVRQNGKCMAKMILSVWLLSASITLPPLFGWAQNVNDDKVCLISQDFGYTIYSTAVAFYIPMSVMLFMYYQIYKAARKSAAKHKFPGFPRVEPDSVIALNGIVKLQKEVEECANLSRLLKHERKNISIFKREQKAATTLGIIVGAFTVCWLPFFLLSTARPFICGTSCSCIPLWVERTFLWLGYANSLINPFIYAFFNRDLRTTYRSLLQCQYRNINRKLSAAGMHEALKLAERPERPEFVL

| Compound | Ki (α1-receptor [1]) [nM] | Ki (α1-receptor [3]) [nM] | IC50 (α1A-AR) [nM] | IC50 (α1B-AR) [nM] | Ki (human 5-HT1A receptor) [nM] | Ki (human 5-HT7b receptor [4]) [nM] | Ki (human 5-HT6 receptor) [nM] | further results |
| --- | --- | --- | --- | --- | --- | --- | --- | --- |
| COc1ccccc1N1CCN(CCn2cnc3ccccc3c2=O)CC1 [ACH-000029] |  |  |  |  |  |  |  | Ki (5-HT2AR): 500 nM; Ki (5-HT1AR): 14 nM; Ki (α1DR): 1.1 nM; anxiolytic activity (behavioral models): anxiolytic activity in behavioral models; Ki (α1AR): 0.07 nM; Ki (α1BR): 4.6 nM |
| COc1ccc(/C=C2\NC(=O)N(CC(O)CN3CCN(c4ccccc4OC)CC3)C2=O)cc1OC (stereo not drawn) [Compound 1] | 44.5 |  |  |  |  |  |  |  |
| COc1ccccc1N1CCN(CC(O)CN2C(=O)NC(C)(c3ccc(F)cc3)C2=O)CC1 (stereo not drawn) [Compound 2] | 230 |  |  |  |  |  |  |  |
| COc1ccc(C2(C)NC(=O)N(CC(O)CN3CCN(c4ccccc4OC)CC3)C2=O)cc1 (stereo not drawn) [Compound 3] | 530 |  |  |  |  |  |  | Ki (human 5-HT7b receptor [2]): 8 nM |
| CCOc1ccccc1N1CCN(CCCN2C(=O)N/C(=C\c3cccc(OC)c3)C2=O)CC1 [Compound 10, (Z)-3-(3-(4-(2-ethoxyphenyl)piperazin-1-yl)propyl)-5-(3-methoxybenzylidene)imidazolidine-2,4-dione] |  | 20.2 ± 4.1 | 7.2 ± 1.1 | 9.2 ± 1.3 | 103 |  |  |  |
| COc1ccc(/C=C2\NC(=O)N(CCCN3CCN(c4ccccc4OC)CC3)C2=O)cc1 [Compound 12, (Z)-5-(4-methoxybenzylidene)-3-(3-(4-(2-methoxyphenyl)piperazin-1-yl)propyl)imidazolidine-2,4-dione] |  | 34.6 ± 4.6 | 12.8 ± 2.5 | 8.5 ± 1.1 | 20.6 | 101 | 22000 |  |
| COc1ccc(/C=C2\NC(=O)N(CCCN3CCN(c4ccccc4OC)CC3)C2=O)cc1OC [Compound 14] |  | 11.9 ± 2.2 | 57.6 ± 7.2 | 182 ± 21.4 | 128 | 189 | 15800 |  |
| CCOc1ccccc1N1CCN(CCCN2C(=O)N/C(=C\c3cc(OC)c(OC)c(OC)c3)C2=O)CC1 [Compound 16, (Z)-3-(3-(4-(2-ethoxyphenyl)piperazin-1-yl)propyl)-5-(3,4,5-trimethoxybenzylidene)imidazolidine-2,4-dione] |  | 14.7 ± 1.1 | 19.1 ± 3.4 | 0.82 ± 0.1 | 165 | 138 | 15200 |  |
| CCOc1ccccc1OCCN[C@H](C)Cc1ccc(OC)c(S(N)(=O)=O)c1 [Tamsulosin, reference compound] |  |  |  | 0.13 ± 0.02 |  |  |  |  |
